From patent publication US20110263662A1, “1,2-DIAMIDO-ETHYLENE DERIVATIVES AS OREXIN ANTAGONISTS” (priority 2007, published 2011)

What was measured:
[1] = molecular target: T1, human orexin-1 receptor (Homo sapiens, UniProt O43613); assay: FLIPR intracellular calcium assay, orexin receptor antagonistic activity (OX1); type: cell-based; conditions: CHO cells expressing human orexin-1 receptor, 3 nM orexin-A
T1 construct: expressed in transfected cells; host or cells: CHO (Chinese hamster ovary) cells, grown under G418 selection
T1 sequence (O43613 1-425): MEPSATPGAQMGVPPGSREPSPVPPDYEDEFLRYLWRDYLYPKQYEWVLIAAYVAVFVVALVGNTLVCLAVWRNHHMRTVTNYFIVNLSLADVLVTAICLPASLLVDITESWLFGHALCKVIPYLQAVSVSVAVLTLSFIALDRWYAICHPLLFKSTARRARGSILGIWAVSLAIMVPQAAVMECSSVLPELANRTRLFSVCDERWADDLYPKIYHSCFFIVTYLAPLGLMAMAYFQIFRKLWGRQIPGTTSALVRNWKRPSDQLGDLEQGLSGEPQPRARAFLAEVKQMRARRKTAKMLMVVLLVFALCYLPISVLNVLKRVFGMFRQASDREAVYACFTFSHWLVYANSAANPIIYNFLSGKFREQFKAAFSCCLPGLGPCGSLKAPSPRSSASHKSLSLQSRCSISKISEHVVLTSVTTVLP
Experimental: (§1) Chinese hamster ovary (CHO) cells expressing the human orexin-1 receptor and the human orexin-2 receptor, respectively, are grown in culture medium (Ham F-12 with L-Glutamine) containing 300 μg/ml G418, 100 U/ml penicillin, 100 μg/ml streptomycin and 10% heat inactivated fetal calf serum (FCS). The cells are seeded at 20′000 cells/well into 384-well black clear bottom sterile plates (Greiner). The seeded plates are incubated overnight at 37° C. in 5% CO2.
(§2) Human orexin-A as an agonist is prepared as 1 mM stock solution in MeOH:water (1:1), diluted in HBSS containing 0.1% bovine serum albumin (BSA), NaHCO3:0.375 g/l and 20 mM HEPES for use in the assay at a final concentration of 3 nM.
(§3) Antagonists are prepared as 10 mM stock solution in DMSO, then diluted in 384-well plates, first in DMSO, then in HBSS containing 0.1% bovine serum albumin (BSA), NaHCO3: 0.375 g/l and 20 mM HEPES.
(§4) On the day of the assay, 50 μl of staining buffer (HBSS containing 1% FCS, 20 mM HEPES, NaHCO3: 0.375 g/l, 5 mM probenecid (Sigma) and 3 μM of the fluorescent calcium indicator fluo-4 AM (1 mM stock solution in DMSO, containing 10% pluronic) is added to each well.
(§5) The 384-well cell-plates are incubated for 50 min at 37° C. in 5% CO2 followed by equilibration at RT for 30-120 min before measurement.
(§6) Within the Fluorescent Imaging Plate Reader (FLIPR2 or FLIPR Tetra, Molecular Devices), antagonists are added to the plate in a volume of 10 μl/well, incubated for 10 min and finally 10 μl/well of agonist is added. Fluorescence is measured for each well at 1 second intervals, and the height of each fluorescence peak is compared to the height of the fluorescence peak induced by 3 nM orexin-A with vehicle in place of antagonist. For each antagonist, the IC50 value (the concentration of compound needed to inhibit 50% of the agonistic response) is determined. Optimized conditions may be achieved by adjustment of pipetting speed and cell splitting regime. The calculated IC50 values of the compounds may fluctuate depending on the daily cellular assay performance. Fluctuations of this kind are known to those skilled in the art.

[2] = molecular target: T2, human orexin-2 receptor (Homo sapiens, UniProt O43614); assay: FLIPR intracellular calcium assay, orexin receptor antagonistic activity (OX2); type: cell-based; conditions: CHO cells expressing human orexin-2 receptor, 3 nM orexin-A
T2 construct: expressed in transfected cells; host or cells: CHO (Chinese hamster ovary) cells, grown under G418 selection
T2 sequence (O43614 1-444): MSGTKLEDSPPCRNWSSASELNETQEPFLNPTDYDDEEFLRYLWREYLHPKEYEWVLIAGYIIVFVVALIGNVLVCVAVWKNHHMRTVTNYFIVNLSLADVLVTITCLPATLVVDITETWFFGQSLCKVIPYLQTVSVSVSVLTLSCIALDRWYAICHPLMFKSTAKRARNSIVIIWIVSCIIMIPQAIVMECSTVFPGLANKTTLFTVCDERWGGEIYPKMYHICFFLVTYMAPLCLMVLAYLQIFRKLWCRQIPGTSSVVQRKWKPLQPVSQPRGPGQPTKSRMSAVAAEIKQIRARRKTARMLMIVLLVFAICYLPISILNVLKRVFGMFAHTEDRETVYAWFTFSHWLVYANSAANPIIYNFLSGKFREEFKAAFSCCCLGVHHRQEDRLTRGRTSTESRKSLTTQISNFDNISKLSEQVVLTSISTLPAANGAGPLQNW
Experimental: as §1, §2, §3, §4, §5, §6

[3] = FLIPR 2, geometric mean from n = 2 values
[4] = measured with FLIPR Tetra (marked *)

IC50 ([1]; measured with FLIPR 2) [nM] | IC50 ([2]; measured with FLIPR 2) [nM] | IC50 [1, 4] [nM] | IC50 [2, 4] [nM] | SMILES | further results
112 | 50 |  |  | Cc1nc(C(=O)N(C)C(CNC(=O)c2c(C)nc3sccn23)C2CC2)c(-c2ccccc2)s1 (racemic) [Example 47, 6-Methyl-imidazo[2,1-b]thiazole-5-carboxylic acid {(RS)-2-cyclopropyl-2-[methyl-(2-methyl-5-phenyl-thiazole-4-carbonyl)-amino]ethyl}-amide] | 
37 | 33 |  |  | Cc1nc(C(=O)NC(CNC(=O)c2c(C)nc3sccn23)C2CC2)c(-c2ccccc2)s1 (racemic) [Example 49, 6-Methyl-imidazo[2,1-b]thiazole-5-carboxylic acid {(RS)-2-cyclopropyl-2-[(2-methyl-5-phenyl-thiazole-4-carbonyl)-amino]-ethyl}-amide] | 
27 | 50 |  |  | Cc1nc(C(=O)N(Cc2ccccc2)C(CNC(=O)c2c(C)nc3sccn23)Cc2ccccc2)c(-c2ccccc2)s1 (racemic) [Example 71, 6-Methyl-imidazo[2,1-b]thiazole-5-carboxylic acid {(RS)-2-[benzyl-(2-methyl-5-phenyl-thiazole-4-carbonyl)-amino]-3-phenyl-propyl}-amide] | 
119 | 19 |  |  | Cc1nc2sccn2c1C(=O)NCC(Cc1ccccc1)NC(=O)c1ccccc1-c1ccccc1 (racemic) [Example 73, 6-Methyl-imidazo[2,1-b]thiazole-5-carboxylic acid {(RS)-2-[(biphenyl-2-carbonyl)-amino]-3-phenyl-propyl}-amide] | 
437 | 303 |  |  | Cc1nc(C(=O)NC(CNC(=O)c2cccc3occc23)CC(C)C)c(-c2ccccc2)s1 (racemic) [Example 83, 2-Methyl-5-phenyl-thiazole-4-carboxylic acid ((RS)-1-{[(benzofuran-4-carbonyl)-amino]-methyl}-3-methyl-butyl)-amide] | 
84 | 46 |  |  | Cc1nc2sccn2c1C(=O)NCC(CC(C)C)NC(=O)c1ccccc1-c1ccccc1 (racemic) [Example 88, 6-Methyl-imidazo[2,1-b]thiazole-5-carboxylic acid {(RS)-2-[(biphenyl-2-carbonyl)-amino]-4-methyl-pentyl}-amide] | 
5.7 | 5.8 |  |  | Cc1nc2sccn2c1C(=O)NCC(C)N(Cc1ccccc1)C(=O)c1ccccc1-c1ccccc1 (racemic) [Example 97, 6-Methyl-imidazo[2,1-b]thiazole-5-carboxylic acid {(RS)-2-[benzyl-(biphenyl-2-carbonyl)-amino]-propyl}-amide] | 
114 | 718 |  |  | Cc1nc2sccn2c1C(=O)NCC(C(C)C)N(Cc1ccccc1)C(=O)c1ccccc1-c1ccccc1 (racemic) [Example 99, 6-Methyl-imidazo[2,1-b]thiazole-5-carboxylic acid {(RS)-2-[benzyl-(biphenyl-2-carbonyl)-amino]-3-methyl-butyl}-amide] | 
 |  |  |  | Cc1nc(C(=O)N(CCNC(=O)c2cccc3occc23)Cc2ccccc2)c(-c2ccc(F)cc2)s1 [Example 2, 5-(4-Fluoro-phenyl)-2-methyl-thiazole-4-carboxylic acid {2-[(benzofuran-4-carbonyl)-amino]-ethyl}-benzyl-amide] | IC50 [1, 3]: 242 nM; IC50 [2, 3]: 35 nM
 |  |  |  | Cc1nc(C(=O)N(C)CCNC(=O)c2cccc3occc23)c(-c2ccc(F)cc2)s1 [Example 3, 5-(4-Fluoro-phenyl)-2-methyl-thiazole-4-carboxylic acid {2-[(benzofuran-4-carbonyl)-amino]-ethyl}-methyl-amide] | IC50 [1, 3]: 150 nM; IC50 [2, 3]: 27 nM
7.8 | 11 |  |  | Cc1nc(C(=O)N(CCNC(=O)c2c(C)nc3sccn23)Cc2ccc(F)cc2)c(-c2ccccc2)s1 [Example 18, 6-Methyl-imidazo[2,1-b]thiazole-5-carboxylic acid {2-[(4-fluoro-benzyl)-(2-methyl-5-phenyl-thiazole-4-carbonyl)-amino]-ethyl}-amide] | 
75 | 12 |  |  | Cc1nc(C(=O)N(CCNC(=O)c2cccc3c2OCCO3)Cc2ccc(C(F)(F)F)cc2)c(-c2ccccc2)s1 [Example 25, 2-Methyl-5-phenyl-thiazole-4-carboxylic acid {2-[(2,3-dihydro-benzo[1,4]dioxine-5-carbonyl)-amino]-ethyl}-(4-trifluoromethyl-benzyl)-amide] | 
504 | 85 |  |  | Cc1nc(C(=O)N(CCNC(=O)c2cccc3c2OCCO3)CC(C)C)c(-c2ccccc2)s1 [Example 31, 2-Methyl-5-phenyl-thiazole-4-carboxylic acid {2-[(2,3-dihydro-benzo[1,4]dioxine-5-carbonyl)-amino]-ethyl}-isobutyl-amide] | 
 |  | 39 | 23 | Cc1ccc(-c2sc(Br)nc2C(=O)N(CCNC(=O)c2c(C)nc3sccn23)C2CC2)cc1 [Example 111, 6-Methyl-imidazo[2,1-b]thiazole-5-carboxylic acid {2-[(2-bromo-5-p-tolyl-thiazole-4-carbonyl)-cyclopropyl-amino]ethyl}-amide] | 
 |  | 98 | 68 | COc1cccc(-c2sc(C)nc2C(=O)N(CCNC(=O)c2nn(C)c3ccccc23)C2CC2)c1 [Example 140, 1-Methyl-1H-indazole-3-carboxylic acid (2-{cyclopropyl-[5-(3-methoxy-phenyl)-2-methyl-thiazole-4-carbonyl]-amino}-ethyl)-amide] | 
 |  | 95 | 20 | Cc1cccc(-c2ccccc2C(=O)N(CCNC(=O)c2nn(C)c3ccccc23)C2CC2)c1 [Example 144, 1-Methyl-1H-indazole-3-carboxylic acid {2-[cyclopropyl-(3′-methyl-biphenyl-2-carbonyl)-amino]-ethyl}-amide] | 
 |  | 2 | 4.3 | Cc1nc(C(=O)N(CCNC(=O)c2cccc3occc23)C2CC2)c(-c2ccc(C)c(C)c2)s1 [Example 165, 5-(3,4-Dimethyl-phenyl)-2-methyl-thiazole-4-carboxylic acid {2-[(benzofuran-4-carbonyl)-amino]-ethyl}-cyclopropyl-amide] | 
 |  | 16 | 12 | Cc1cccc(-c2sc(C3CC3)nc2C(=O)N(CCNC(=O)c2c(C)nc3sccn23)CC2CC2)c1 [Example 171, 6-Methyl-imidazo[2,1-b]thiazole-5-carboxylic acid {2-[cyclopropylmethyl-(2-cyclopropyl-5-m-tolyl-thiazole-4-carbonyl)-amino]-ethyl}-amide] | 
 |  | 10 | 10 | COc1cccc(-c2sc(Br)nc2C(=O)N(CCNC(=O)c2c(C)nc3sccn23)CC2CC2)c1 [Example 179, 6-Methyl-imidazo[2,1-b]thiazole-5-carboxylic acid (2-{[2-bromo-5-(3-methoxy-phenyl)-thiazole-4-carbonyl]-cyclopropylmethyl-amino}-ethyl)-amide] | 
